These results are taken from patent US20040019082A1, “Reversible infertility in male mice following oral administration of alkylated imino sugars: a non-hormonal approach to male contraception” (United Therapeutics Corporation, priority 2002, published 2004).

What all share (format): in vivo, mouse
In one series the test system is male C57BL/6 mice. Nature of the series: Mating assay, fertility of male mice. Particulars: 250 mg/kg/day. The text has this: Treatment of mice—Male C57BL/6 mice were housed under standard non-sterile conditions. The mice were provided with water ad lib. and prior to drug administration were fed a diet of pelleted mouse chow (expanded Rat and Mouse Chow 3, SDS Ltd.) To administer the compounds of the present invention, the mice were fed a diet of powdered mouse chow (expanded Rat and Mouse Chow 1, ground, SDS Ltd.) containing either NB-DNJ, NB-DGJ, NN-6-MeDGJ, or DNJ. The diet and compound (both as dry solids) were mixed thoroughly, stored at room temperature, and used within 7 days of mixing.
Mating assays—To assess the fertility of male mice that were fed on a diet containing an iminosugar, a mating assay was used: typically six week old male C57BL/6 mice in groups of three were administered diet containing compound for five weeks (unless otherwise specified), after which each of them was caged with four untreated female C57BL/6 mice, and provided with standard pelleted chow. Females were at least 11 weeks old, and age-matched in each experiment. The male was removed from the females after 7 or 9 days, depending on the experiment; the females were monitored for vaginal mucous plugs, pregnancies, and, if any, litter sizes. To study any effect on female fertility six-week-old female C57BL/6 mice were treated with NB-DNJ for five weeks, after which each of them was caged with a non-treated age-matched male for four days.

Series [1] can be described thus: Body, gonad and organ weights of treated mice.
In another series the test system is liver glycogen. Nature of the series: Liver glycogen levels in fed or starved mice. Particulars: 250 mg/kg/day. The procedure: Liver glycogen levels were measured in untreated and NN-DGJ-treated mice (FIG. 6B), who were either provided food or starved.

For `CCCCCCCCCN1C[C@H](O)[C@@H](O)[C@@H](O)[C@H]1CO` [NN-DGJ], in the series with male C57BL/6 mice (after five weeks of treatment, four treated mice), the “fertility of male mice” value is recorded as “completely suppressed”. Besides, the “litter size compared with untreated males” value with male C57BL/6 mice (six weeks after withdrawal) is listed as “almost the same”. In addition, the “fertility of male mice after withdrawal” value in the series on male C57BL/6 mice (six weeks following withdrawal) was “fully regained fertility”. In series [1] (250 mg/kg/day), the “thymus and spleen weights” value was “did not affect”. Further, the “body weight relative to untreated mice” value in series [1] (250 mg/kg/day over a 40 day period, n=8) is given as “did not affect”. In the series on liver glycogen, the “breakdown of liver glycogen during starvation” value is listed as “did not inhibit”.
